Results on ten molecules are retold here after PubChem BioAssay (NCI).

Test systems include MALME-3M melanoma; OVCAR-3 ovarian; SF-268 CNS; HCT-116 colon; HCT-15 colon; K-562 leukemia; UACC-62 melanoma; MOLT-4 leukemia; HT29 colon; COLO 205 colon.
Common to all, as to test: inhibition of tumour cell growth, NCI panel, 48 h

Structures are written as SMILES.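 Each compound was tested at five concentrations against cells in 96-well plates for 48 hours. The concentration for 50% growth inhibition is given as GI50. At the TGI there is no net growth.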 A value given as a limit tells only on which side of the number the result lay.

Take `CN=NN(C)C(=O)NC`: the TGI in the assay with MALME-3M melanoma, in the assay on OVCAR-3 ovarian, in the assay on SF-268 CNS, in the assay on HCT-116 colon, with HCT-15 colon and with K-562 leukemia was over 100 µM in each case. In addition, the TGI in the assay on UACC-62 melanoma, in the assay on MOLT-4 leukemia, in the assay on HT29 colon and in the assay with COLO 205 colon was over 100 µM throughout.

Consider `O=C(O)c1cc(O)c2c(c1)C(C1c3cc(C(=O)O)cc(O)c3C(=O)c3c(OC4OC(CO)C(O)C(O)C4O)cccc31)c1cccc(OC3OC(CO)C(O)C(O)C3O)c1C2=O` (stereo not given), for which the GI50 in the assay with MALME-3M melanoma, in the assay on OVCAR-3 ovarian, in the assay with SF-268 CNS, in the assay on HCT-116 colon, in the assay on HCT-15 colon and in the assay on K-562 leukemia was over 100 µM throughout. For the same molecule, the GI50 in the assay with UACC-62 melanoma, in the assay with MOLT-4 leukemia, in the assay with HT29 colon and with COLO 205 colon was over 100 µM throughout. The TGI in the assay on MALME-3M melanoma, in the assay with OVCAR-3 ovarian, in the assay on SF-268 CNS, with HCT-116 colon, with HCT-15 colon and in the assay on K-562 leukemia was over 100 µM in each case. Also, the TGI with UACC-62 melanoma, in the assay on MOLT-4 leukemia, in the assay on HT29 colon and in the assay with COLO 205 colon was over 100 µM each time.

In the case of `COC(=O)/C=C/C1C(C(=O)OC)C2(C(=O)OC)CCC1(C(=O)OC)N2` (stereo not given), the TGI in the assay with MALME-3M melanoma, with OVCAR-3 ovarian, with SF-268 CNS, in the assay on HCT-116 colon, in the assay on HCT-15 colon and in the assay with K-562 leukemia was over 100 µM each time. Further, the TGI with UACC-62 melanoma, in the assay with MOLT-4 leukemia, in the assay on HT29 colon and with COLO 205 colon was over 100 µM in each case.

Take `COc1ccc(-c2cc(-c3cccn3C)c(C#N)c(N)n2)cc1OC`: the GI50 in the assay on MALME-3M melanoma is over 100 µM; in the assay on OVCAR-3 ovarian it was over 100 µM; in the assay with SF-268 CNS, 82.4 µM; in the assay with HCT-116 colon it was 91.1 µM; in the assay with HCT-15 colon it was over 100 µM; in the assay with K-562 leukemia it was 55.6 µM. Besides, the GI50 with UACC-62 melanoma is 86.3 µM; with MOLT-4 leukemia it was 46.8 µM; with HT29 colon, over 100 µM; in the assay with COLO 205 colon, over 100 µM. In addition, the TGI in the assay on MALME-3M melanoma, in the assay with OVCAR-3 ovarian, in the assay with SF-268 CNS, in the assay on HCT-116 colon, in the assay on HCT-15 colon and in the assay with K-562 leukemia was over 100 µM each time. Further, the TGI in the assay with UACC-62 melanoma, in the assay on MOLT-4 leukemia, in the assay on HT29 colon and in the assay on COLO 205 colon was over 100 µM each time.

`O=c1[nH]c2cc(Cl)ccc2n1C1CCN(CCCC(c2ccc(F)cc2)c2ccc(F)cc2)CC1`: the GI50 in the assay on MALME-3M melanoma is 1.88 µM; in the assay with OVCAR-3 ovarian, 1.81 µM; in the assay on SF-268 CNS, 1.56 µM; in the assay with HCT-116 colon, 1.46 µM; in the assay on HCT-15 colon, 1.45 µM; with K-562 leukemia it was 2.98 µM. Moreover, the GI50 with UACC-62 melanoma is 1.71 µM; in the assay on MOLT-4 leukemia it was 2.43 µM; in the assay with HT29 colon, 0.766 µM; with COLO 205 colon it was 1.23 µM. For the same molecule, the TGI in the assay with MALME-3M melanoma is 4.21 µM; in the assay on OVCAR-3 ovarian, 3.27 µM; in the assay on SF-268 CNS it was 2.98 µM; with HCT-116 colon it was 2.87 µM; with HCT-15 colon, 2.76 µM; in the assay on K-562 leukemia, over 100 µM. Besides, the TGI was 3.13 µM with UACC-62 melanoma, 7.15 µM with MOLT-4 leukemia, 2.16 µM in the assay on HT29 colon and 2.6 µM in the assay on COLO 205 colon.

In the case of `N#CC1Nc2ccccc2[C@@H](O)C1O` (stereo not given in full), the TGI in the assay on MALME-3M melanoma, in the assay on OVCAR-3 ovarian, in the assay with SF-268 CNS, in the assay on HCT-116 colon, in the assay on HCT-15 colon and with K-562 leukemia was over 100 µM each time. Also, the TGI in the assay on UACC-62 melanoma, in the assay on MOLT-4 leukemia, with HT29 colon and with COLO 205 colon was over 100 µM in each case.

On to `N#CC(/C(=N/NC(=O)C(=O)NN)C(=O)NC12CC3CC(CC(C3)C1)C2)c1ccccc1` (stereo not given), for which the TGI in the assay with MALME-3M melanoma, in the assay with OVCAR-3 ovarian, in the assay with SF-268 CNS, in the assay with HCT-116 colon, in the assay with HCT-15 colon and with K-562 leukemia was over 100 µM throughout. For the same molecule, the TGI in the assay with UACC-62 melanoma, in the assay with MOLT-4 leukemia, in the assay with HT29 colon and in the assay with COLO 205 colon was over 100 µM in each case.

Consider `O=C(O)c1cccc(OCCO)c1`, for which the TGI with MALME-3M melanoma, in the assay with OVCAR-3 ovarian, in the assay with SF-268 CNS, in the assay with HCT-116 colon, with HCT-15 colon and in the assay on K-562 leukemia was over 100 µM throughout. Besides, the TGI in the assay with UACC-62 melanoma, in the assay on MOLT-4 leukemia, with HT29 colon and with COLO 205 colon was over 100 µM in each case.

For the molecule `O=C(Nc1ccc(Cl)cc1F)c1cc(Br)ccc1O`, the GI50 in the assay on MALME-3M melanoma was 0.595 µM; with OVCAR-3 ovarian, 0.604 µM; in the assay on SF-268 CNS, 0.745 µM; in the assay on HCT-116 colon, 0.805 µM; with HCT-15 colon it was 1.06 µM; in the assay with K-562 leukemia, 0.678 µM. In addition, the GI50 with UACC-62 melanoma is 0.305 µM; with MOLT-4 leukemia, 2.34 µM; in the assay with HT29 colon, 3.67 µM; in the assay with COLO 205 colon, 7.65 µM. The TGI with MALME-3M melanoma is 2.65 µM; in the assay on OVCAR-3 ovarian it was 14.2 µM; in the assay on SF-268 CNS, 9.66 µM; with HCT-116 colon, 3.19 µM; with HCT-15 colon, over 20.8 µM; with K-562 leukemia it was over 100 µM. The TGI is 1.26 µM with UACC-62 melanoma, 7.87 µM with MOLT-4 leukemia, over 100 µM with HT29 colon and 21.5 µM with COLO 205 colon.

In the case of `O=C(/C=C/c1c(O)ccc2ccccc12)c1ccc2ccccc2c1`, the TGI with MALME-3M melanoma, in the assay on OVCAR-3 ovarian, in the assay with SF-268 CNS, in the assay on HCT-116 colon, with HCT-15 colon and with K-562 leukemia was over 100 µM each time. Moreover, the TGI with UACC-62 melanoma, in the assay on MOLT-4 leukemia, in the assay with HT29 colon and in the assay with COLO 205 colon was over 100 µM each time.
